Where a SMILES comes first, the peptide text is derived from it. Where no end group is shown, it is not given here. The star is where a group is joined. Myristoyl = CCCCCCCCCCCCCC(=O)*

As a reminder, the solubility is the dissolved amount per volume that the medium holds. Low readings indicate a poorly soluble substance, high ones a readily soluble substance.

For series [1], the system named is isolated canine neutrophils. Nature of the series: MPO secretion from isolated canine neutrophils stimulated with PMA + 8-Br-cGMP (FIG. 6, 10, 11). The format is cell-based. The note with it: for MPO secretion: FIG. 6, 100 nM PMA and 10 μM 8-Br-cGMP. The source says:
The invention also relates to a new method for blocking any cellular exocytotic secretory process, especially those releasing inflammatory mediators from granules contained within inflammatory cells, whose stimulatory pathways involve the protein kinase C (PKC) substrate MARCKS protein and release of contents from membrane-bound vesicles. Specifically, the inventors have shown that stimulated release of the inflammatory mediator myloperoxidase from human (FIG. 6) or canine (FIG. 7) neutrophils can be blocked in a concentration-dependent manner by the MANS peptide. […] 10 or 100 μM of a control peptide (RNS) has no effect on MPO secretion. In FIG. 7, isolated neutrophils were stimulated to secrete myloperoxidase (MPO) with 100 nM PMA and 10 μM 8-Br-cGMP. […] 10 or 100 μM of a control peptide (RNS) has no effect on MPO secretion. Thus, the peptide may be used therapeutically to block the release of mediators of inflammation secreted from infiltrating inflammatory cells in any tissues. Many of these released mediators are responsible for the extensive tissue damage observed in a variety of chronic inflammatory diseases (i.e., respiratory diseases such as asthma, chronic bronchitis and COPD, inflammatory bowel diseases including ulcerative colitis and Crohn's disease, autoimmune diseases, skin diseases such as rosacea, eczema; and severe acne, arthritic and pain syndromes such as rheumatoid arthritis and fibromyalgia). This invention may be useful for treating diseases such as arthritis, chronic bronchitis, COPD and cystic fibrosis. This invention is accordingly useful for the treatment in both human and animal diseases, especially those affecting equines, canines, felines, and other household pets.
FIGS. 8-12 show MPO secretion for both humans and canines. In all of these experiments, isolated neutrophils were stimulated with LPS at a concentration of 1×10^−6 M for 10 minutes at 37° C. prior to adding the stimuli as indicated in the figures. The LPS primes the cells so they can respond to a secretagogue.
Isolation of PMNs from canine blood—The steps involved in isolating PMN include collecting 10 ml ACD anticoagulated blood. Then layering 5 ml on 3.5 ml PMN isolation media while ensuring that the PMN isolation media (IM) was at room temperature (RI). Next, the blood was centrifuged at room temperature for 30′, 550×g at 1700 RPMs. The low lower white band was transferred into 15 ml conical centrifuge tube (CCFT). Next, 2V HESS with 10% fetal bovine serum […] was added and centrifuged at room temperature for 10′, 400×g at 1400 RPMs. The pellet was then resuspended in 5 ml 1-1ESS with PBS. The cell suspension was added to 50 ml CCFT containing 20 ml of ice cold 0.88% NH4Cl and inverted two to three times. The resulting product was centrifuged for 10′, 800×g at 2000 RPMs, then aspirated and resuspended in 5 ml HBSS with FBS. The prep was examined by counting and cytospin and preferably for whole blood, the cell number should be between 10^9-10^11 cells and for PMNs, cell number should be between 2-4×10^7 cells. See generally, Wang et al., J. Immunol., “Neutrophil-induced changes in the biomechanical properties of endothelial cells: roles of ICAM-1 and reactive oxygen species,” 6487-94 (2000).
MPO Colorimetric Enzyme Assay—Samples were assayed for MPO activity in 96 well round bottom microtiter plates using a sandwich ELISA kit (R & D Systems, Minneapolis, Minn.). […]

Series [2] can be described thus: Qualitative solubility of peptides in 0.5 N saline, pH 6.5.

On to `CCCCCCCCCCCCCC(=O)NCC(=O)N[C@@H](C)C(=O)N[C@@H](CCC(N)=O)C(=O)N[C@@H](Cc1ccccc1)C(=O)N[C@@H](CO)C(=O)N[C@@H](CCCCN)C(=O)N[C@H](C(=O)N[C@@H](C)C(=O)N[C@@H](C)C(=O)N[C@@H](CCCCN)C(=O)NCC(=O)N[C@@H](CCC(=O)O)C(=O)N[C@@H](C)C(=O)N[C@@H](C)C(=O)N[C@@H](C)C(=O)N[C@@H](CCC(=O)O)C(=O)N[C@@H](CCCNC(=N)N)C(=O)N1CCC[C@H]1C(=O)NCC(=O)N[C@@H](CCC(=O)O)C(=O)N[C@@H](C)C(=O)N[C@@H](C)C(=O)N[C@H](C(=O)N[C@@H](C)C(=O)O)C(C)C)[C@@H](C)O` [MANS] (Myristoyl-GAQFSKTAAKGEAAAERPGEAAVA-OH; C-terminus assumed), for which the MPO secretion result is on record as “slight decrease” in series [1] (10 μM peptide) and “decreased secretion of MPO to control levels” in series [1] (100 (unit not given) peptide).

For `CCCCCCCCCCCCCC(=O)O[C@@H]1[C@@H](C)[C@@]2(O)[C@@H](C=C(CO)C[C@]3(O)C(=O)C(C)=C[C@@H]23)[C@@H]2C(C)(C)[C@]12OC(C)=O` [PMA, phorbol 12-myristate 13-acetate], the “MPO secretion from LPS-stimulated canine neutrophils” value in series [1] (FIG. 10, PMA alone, enhanced concentration-dependently by co-stimulation with 8-Br-cGMP) is “small increase”.

`CCCCCCCCCCCCCC(=O)NCC(=O)N[C@H](C(=O)N[C@@H](C)C(=O)N1CCC[C@H]1C(=O)N[C@@H](C)C(=O)N[C@@H](C)C(=O)N[C@@H](CCC(=O)O)C(=O)NCC(=O)N[C@@H](C)C(=O)NCC(=O)N[C@@H](C)C(=O)N[C@@H](CCC(=O)O)C(=O)N[C@H](C(=O)N[C@@H](CCCCN)C(=O)N[C@@H](CCCNC(=N)N)C(=O)N[C@@H](C)C(=O)N[C@@H](CO)C(=O)N[C@@H](C)C(=O)N[C@@H](CCC(=O)O)C(=O)N[C@@H](C)C(=O)N[C@@H](CCCCN)C(=O)N[C@@H](CCC(N)=O)C(=O)N[C@@H](C)C(=O)N[C@@H](Cc1ccccc1)C(=O)O)C(C)C)[C@@H](C)O` [RNS, reference compound] (Myristoyl-GTAPAAEGAGAEVKRASAEAKQAF-OH; C-terminus assumed) yielded a solubility in series [2] greater than 15 mg/mL. Besides, in series [1] (10 or 100 μM peptide), the MPO secretion result was “no effect”.

The compound Ac-GAQFSKTAAK [Ac-GAQFSKTAAK] yielded a solubility in series [2] greater than 100 mg/mL.

Compound Ac-GAQFSKTAAKGEAAAERPGEAAVA had a solubility in series [2] greater than 250 mg/mL.
